Patent US10941114B2, “Small molecule lipid II inhibitors” (University Of Maryland, Baltimore, priority 2015, dated 2021)
Structures can show the parent of a compound that is named as a salt. Where two headings read alike, the source gives them in different places. Values belong to the compound of their own block, whether it stands above or below them.

Experiments:
Staphylococcus aureus = assay: Antibacterial activity assay (MIC, broth dilution); type: cell-based; set-up: S. aureus Killing / Bacterial Killing S. aureus: unit not given here; conditions: for Bacterial Killing S. aureus: determined as in Example 1E (MIC); for MIC SA: S. aureus USA300 (MRSA), average of two replicates; for MIC: Staphylococcus aureus, Table 16, CLSI M07-A10 dilution method, read-out: MIC S. aureus
Enterococcus faecium = assay: Antibacterial activity assay (MIC, broth dilution); type: cell-based; set-up: Bacterial Killing E. faecium: unit: ug/mL; conditions: for Bacterial Killing E. faecium: determined as in Example 1E (MIC); for MIC EF: average of two replicates; for MIC: Enterococcus faecium, Table 16, CLSI M07-A10 dilution method, read-out: MIC E. faecium
Experimental: (§1) Determination of the Minimal Inhibitory Concentrations (MIC) by dilution was carried out by broth dilution according to CLSI standards. See CLSI, Methods for Dilution Antimicrobial Susceptibility Tests for Bacteria That Grow Aerobically; Approved Standard—Eighth Edition. 2009, the contents of which are hereby incorporated by reference. Briefly, the minimum inhibitory concentration MIC, is the lowest concentration of a compound that prevents visible growth of a bacterium, in other words at which it has bacteriostatic activity.
For these tests, cation-adjusted Mueller Hinton broth, containing 10% brain-heart infusion (BHI) was used. Concentrations (MIC) are given in μg/mL. The compound was […].
(§2) Compounds were tested for MIC by methods known in the art and described in CLSI, Methods for Dilution Antimicrobial Susceptibility Tests for Bacteria That Grow Aerobically; Approved Standard—Tenth Edition. CLSI document M07-A10. Wayne, Pa.: Clinical and Laboratory Standards Institute, 2015, which is hereby incorporated by reference for these methods.
(§3) Selected compounds also were tested by broth microdilution methods known in the art and described in CLSI, Methods for Dilution Antimicrobial Susceptibility Tests for Bacteria That Grow Aerobically; Approved Standard—Tenth Edition. CLSI document M07-A10. Wayne, Pa.: Clinical and Laboratory Standards Institute, 2015, which is hereby incorporated by reference. Structures of selected compounds in the tables are listed below.

Escherichia coli = assay: Antibacterial activity assay (MIC, broth dilution); type: cell-based; conditions: determined as in Example 1E (MIC)
[1] = Pharmacokinetic study in mice (plasma concentration by LC/MS/MS)
HeLa cells = assay: Cytotoxicity testing (CC50, MTS assay); conditions: HeLa cells
Acinetobacter baumannii = assay: Antibacterial activity assay (MIC, broth dilution); type: cell-based; conditions: for MIC AB: A. baumannii 2-2-2 (colistin-resistant clinical isolate), average of two replicates; for MIC: Acinetobacter baumannii, Table 16, CLSI M07-A10 dilution method, read-out: MIC A. baumannii
Experimental: as §1, §2, §3

[2] = mouse, in vivo, iv, 10 mg/kg
[3] = Surface Plasmon Resonance determination of Lipid II binding; conditions: SPR; for Lipid II binding affinity: FIG. 16
Experimental: Short-chain water-soluble LII containing a lipid tail of three isoprene units (3-LII) was generated and purified essentially according to methods known in the art. See Breukink et al., Lipid II is an intrinsic component of the pore induced by nisin in bacterial membranes. J. Biol. Chem. 278(22):19898-19903, 2003, the contents of which are hereby incorporated by reference. Typically, M. flavus vesicles (120 μmol lipid-Pi) were incubated together with 500 μmol UDP-GlcNAc, 500 μmol UDP-MurNAC-pentapeptide and 400 μmol farnesyl phosphate in 100 mM Tris-HCl pH 8.0, 5 mM MgCl2. The incubation period was approximately two hours at room temperature for 3-LII (3-P). The synthesis of 3-Lipid II was followed by RP-8 reversed phase TLC (Merck™) developed with 75% methanol. For purification, the membranes were removed by centrifugation at 40,000×g; the supernatant was collected and loaded on a C18 HPLC column and eluted with a linear gradient from 50 mM ammonium bicarbonate to 100% methanol in 30 minutes. Farnesyl-Lipid II (3-Lipid II) eluted at approximately 60% methanol. Its identity was confirmed by mass spectroscopy.
Surface Plasmon Resonance binding experiments were carried out on a BIAcore T100 system (BIAcore™ Inc., Piscataway, N.Y.) at 25° C. The assay buffer was 10 mM HEPES, 150 mM NaCl, 0.05% surfactant P20, pH 7.4 (+3 mM EDTA) supplemented with 10% DMSO. 3-Lipid II (50 RUs) was immobilized on CMS sensor chips using the amine-coupling chemistry recommended by the manufacturer. For initial determination of binding, compounds were introduced into the flow-cells (30.mu·1/min) in the running buffer at 10 μM. Resonance signals were corrected for nonspecific binding by subtracting the background of the control flow-cell. Binding to immobilized 3-LII on the chip surface was determined and scored “yes” in Table 5 when more than 20 Resonance Units or RUs were detected. Detection of less than 20 RUs was scored as “no”, meaning no significant binding to LII. After each analysis, the sensor chip surfaces were regenerated with 50 mM NaOH for 30 seconds at a flow rate 100 μL/min, and equilibrated with the buffer prior to next injection. For binding kinetics studies, binding isotherms were analyzed with manufacturer-supplied software for BIAcore™ T100.

[4] = Maximum Tolerated Dose (MTD) and in vivo toxicity at the MTD; conditions: dose-escalation; final MTD
[5] = single dose of 10 mg/kg by intravenous injection
[6] = text: E. faecium EF1509 (VRE), footnote: Enterococcus faecalis ATCC 1509
[7] = single dose of 10 mg/kg by intravenous injection in CD1 mice (n=3)

Compound: CN(C)c1ccc(/C=C/C=C/c2cc(-c3ccc(F)cc3)cc(-c3ccc(F)cc3)[o+]2)cc1 [Compound 7jc47-2]
Bacterial Killing S. aureus (Staphylococcus aureus): 1 | Bacterial Killing E. faecium (Enterococcus faecium): 1 | Bacterial Killing E. coli (Escherichia coli): >64

Compound: Cc1ccc(/C=C/c2cc(-c3ccc(Br)cc3)cc(-c3ccc(Br)cc3)[n+]2C)cc1.[I-] [EL-11]
AUCextrap [1, 5]: 12.9 ± 5.6% | AUClast/D [1, 5]: 185.3 ± 37.3 ng·h/mL | CC50 (HeLa cells; exposure 24 hours): 5 µg/mL | MIC SA (Staphylococcus aureus): 1 µg/mL | MIC AB (Acinetobacter baumannii): >64 µg/mL | AUCInf [2]: 2137 ± 455 ng·h/mL | AUClast/D [2]: 1853 ± 372 mg·h/mL | Cl—obs [2]: 80.3 ± 16.6 mL/min/kg | MRT [2]: 9.13 ± 3.17 h | T1/2 [2]: 11 ± 2.37 h | Lipid II binding affinity [3]: below micromolar | MIC EF (Enterococcus faecium; [6]): 4 µg/mL

Compound: CN1/C(=C/C=C/c2cc(-c3ccc(Cl)cc3)cc(-c3ccc(Cl)cc3)[o+]2)C(C)(C)c2ccccc21 [Compound 7jc42-1]
Bacterial Killing S. aureus (Staphylococcus aureus): 8 | Bacterial Killing E. faecium (Enterococcus faecium): 32 | Bacterial Killing E. coli (Escherichia coli): >64

Compound: CN1/C(=C/C=C/c2cc(-c3ccc(Br)cc3)cc(-c3ccc(Br)cc3)[o+]2)C(C)(C)c2ccccc21 [Compound 7jc42-2]
Bacterial Killing S. aureus (Staphylococcus aureus): 32 | Bacterial Killing E. faecium (Enterococcus faecium): 32 | Bacterial Killing E. coli (Escherichia coli): >64

MIC AB (Acinetobacter baumannii): 8 µg/mL
Compound: CN(C)c1ccc(/C=C/c2cc(-c3ccc(Br)cc3)cc(-c3ccc(Br)cc3)[n+]2C)cc1.[I-] [EL-2]
CC50 (HeLa cells; exposure 24 hour): 5 µg/mL | CC50 (HeLa cells; exposure 24 hours): 5 µg/mL | MIC SA (Staphylococcus aureus): 1 µg/mL | MIC EF (Enterococcus faecium; E. faecium EF1509 (VRE)): 1 µg/mL | MIC EF (Enterococcus faecium; [6]): 1 µg/mL

Compound: CN(C)c1ccc(/C=C/c2cc(-c3ccc(Cl)cc3)cc(-c3ccc(Cl)cc3)[o+]2)cc1 [(E)-2,4-bis(4-chlorophenyl)-6-(4-(dimethylamino)styryl)pyrylium boron tetrafluoride salt]
S. aureus Killing (Staphylococcus aureus; anti-bacterial activity (MIC), strain not stated): 32 | Lipid II Binding ([3]; immobilized 3-LII, compounds at 10 μM): yes (scored “yes” in Table 5 when more than 20 Resonance Units or RUs were detected)

Compound: CN(C)c1ccc(/C=C/c2cc(-c3ccc(Br)cc3)cc(-c3ccc(Br)cc3)[n+]2C2CCCCC2)cc1.[I-] [EL-5]
AUCextrap [1, 5]: 27.2 ± 1.6% | AUClast/D [1, 5]: 300 ± 58 ng·h/mL | CC50 (HeLa cells; exposure 24 hour): 4 µg/mL | MIC SA (Staphylococcus aureus): 1 µg/mL | MIC AB (Acinetobacter baumannii): 0.5 µg/mL | AUCInf [2]: 4125 ± 780 ng·h/mL | Cl—obs [2]: 41.29 ± 7 mL/min/kg | MRT [2]: 18.8 ± 1.62 h | T1/2 [2]: 23.8 ± 0.84 h | Lipid II binding affinity [3]: below micromolar | MIC EF (Enterococcus faecium; E. faecium EF1509 (VRE)): 0.25 µg/mL

Compound: CN(CCC#N)c1ccc(/C=C/c2cc(-c3ccc(Br)cc3)cc(-c3ccc(Br)cc3)[n+]2C)cc1.[I-] [Compound 12c]
AUCInf [1, 7]: 2137 ± 455 ng·h/mL | AUCextrap [1, 7]: 12.9 ± 5.6% | Cl3 [1, 7]: 80.3 ± 16.6 mL/min/kg | Cmax [1, 7]: 3975 ± 739 ng/mL | MRT [1, 7]: 9.13 ± 3.17 h | T1/2 [1, 7]: 11 ± 2.37 h | Vss—obs [1, 7]: 46.3 ± 23.3 L/kg | Maximum Tolerated Dose (MTD) [4]: 40 mg/kg

Compound: CC(C)C[n+]1c(/C=C/c2ccc(N(C)C)cc2)cc(-c2ccc(Br)cc2)cc1-c1ccc(Br)cc1.[I-] [EL-1]
CC50 (HeLa cells; exposure 24 hour): 5 µg/mL | Maximum Tolerated Dose (MTD) [4]: 25 mg/kg | MIC SA (Staphylococcus aureus): 0.5 µg/mL | MIC AB (Acinetobacter baumannii): 4 µg/mL | AUCInf [2]: 1528 ± 286 ng·h/mL | AUCextrap [2]: 5.15 ± 1.28% | Cl3 [2]: 111 ± 20 mL/min/kg | Cl—obs [2]: 111 ± 20 mL/min/kg | MRT [2]: 4.42 ± 0.72 h | T1/2 [2]: 8.33 ± 0.84 h | Lipid II binding affinity [3]: below micromolar | MIC EF (Enterococcus faecium; E. faecium EF1509 (VRE)): 1 µg/mL

MIC AB (Acinetobacter baumannii): 16 µg/mL
Compound: CC(C)[n+]1c(/C=C/c2ccc(N(C)C)cc2)cc(-c2ccc(Br)cc2)cc1-c1ccc(Br)cc1.[I-] [EL-3]
CC50 (HeLa cells; exposure 24 hour): 9 µg/mL | MIC SA (Staphylococcus aureus): 2 µg/mL | MIC EF (Enterococcus faecium; E. faecium EF1509 (VRE)): 2 µg/mL

MIC (Acinetobacter baumannii): 2 µg/mL
Compound: CCC[n+]1c(/C=C/c2ccc(N(C)C)cc2)cc(-c2ccc(Br)cc2)cc1-c1ccc(C)cc1.[I-] [Compound 9e3, (E)-4-(4-bromophenyl)-2-(4-(dimethylamino)styryl)-1-propyl-6-(p-tolyl)-pyridin-1-ium iodide]
MIC (Staphylococcus aureus): 0.5 µg/mL | MIC (Enterococcus faecium): 2 µg/mL

MIC (Acinetobacter baumannii): 8 µg/mL
Compound: CCN(C)c1ccc(/C=C/c2cc(-c3ccc(Br)cc3)cc(-c3ccc(Br)cc3)[n+]2C)cc1.[I-] [Compound 9h, (E)-2,4-bis(4-bromophenyl)-6-(4-(ethyl(methyl)amino)styryl)-1-methylpyridin-1-ium iodide]
MIC (Staphylococcus aureus): 16 µg/mL | MIC (Enterococcus faecium): 8 µg/mL

Compound: Cc1ccc(-c2cc(-c3ccc(Br)cc3)cc(/C=C/c3ccc(N(C)C)cc3)[n+]2C)cc1.[I-] [EL-8]
AUCextrap [1, 5]: 4.63 ± 0.51% | AUClast/D [1, 5]: 72.9 ± 17.9 ng·h/mL | CC50 (HeLa cells; exposure 24 hours): 12 µg/mL | MIC SA (Staphylococcus aureus): 0.5 µg/mL | MIC AB (Acinetobacter baumannii): 4 µg/mL | AUCInf [2]: 764 ± 187 ng·h/mL | AUClast/D [2]: 729 ± 179 mg·h/mL | MRT [2]: 1.74 ± 0.49 h | T1/2 [2]: 9.4 ± 1.01 h | Lipid II binding affinity [3]: below micromolar | MIC EF (Enterococcus faecium; [6]): 4 µg/mL

Compound: CN(C)c1ccc(/C=C/c2cc(-c3cccc(F)c3)cc(-c3cccc(F)c3)[o+]2)cc1 [Compound 7jc46-1]
Bacterial Killing S. aureus (Staphylococcus aureus): 1 | Bacterial Killing E. faecium (Enterococcus faecium): 2 | Bacterial Killing E. coli (Escherichia coli): >64

MIC (Acinetobacter baumannii): 16 µg/mL
Compound: COc1cc(-c2cc(/C=C/c3ccc(N(C)C)cc3)[n+](C)c(-c3ccc(Br)cc3)c2)cc(OC)c1Br.[I-] [Compound 9y1, (E)-4-(4-bromo-3,5-dimethoxyphenyl)-2-(4-bromophenyl)-6-(4-(dimethyl-amino)styryl)-1-methylpyridin-1-ium iodide]
MIC (Staphylococcus aureus): 2 µg/mL | MIC (Enterococcus faecium): 8 µg/mL

MIC (Acinetobacter baumannii): 16 µg/mL
Compound: Cc1ccc(-c2cc(-c3ccc(Br)cc3)cc(/C=C/c3ccc(N(C)CCO)cc3)[n+]2C)c(C)c1.[I-] [Compound 9t, (E)-4-(4-bromophenyl)-2-(2,4-dimethylphenyl)-6-(4-((2-hydroxyethyl)(methyl)-amino)styryl)-1-methylpyridin-1-ium iodide]
MIC (Staphylococcus aureus): 0.5 µg/mL | MIC (Enterococcus faecium): 2 µg/mL

MIC (Acinetobacter baumannii): 8 µg/mL
Compound: CCN(CC)c1ccc(/C=C/c2cc(-c3ccc(Br)cc3)cc(-c3cccc(Br)c3)[n+]2C)cc1.[I-] [Compound 9m, (E)-2-(3-bromophenyl)-4-(4-bromophenyl)-6-(4-(diethylamino)styryl)-1-methylpyridin-1-ium iodide]
MIC (Staphylococcus aureus): 8 µg/mL | MIC (Enterococcus faecium): 4 µg/mL
